Structures can show the parent of a compound that is named as a salt.
Legend:
[1] = biological target: T1, human JAK1 (a.a. 837-1142) (Homo sapiens, UniProt P23458); test: In vitro JAK kinase assay (HTRF, phosphorylation of a biotinylated peptide), JAK1; assay type: biochemical
T1 construct: human JAK1 (a.a. 837-1142); His tag (N); made in house; host or cells: insect cells (baculovirus)
Experimental: (§1) Compounds herein were tested for inhibitory activity of JAK targets according to the following in vitro assay described in Park et al., Analytical Biochemistry 1999, 269, 94-104. The catalytic domains of human JAK1 (a.a. 837-1142), Jak2 (a.a. 828-1132) and Jak3 (a.a. 781-1124) with an N-terminal His tag were expressed using baculovirus in insect cells and purified. The catalytic activity of JAK1, JAK2 or JAK3 was assayed by measuring the phosphorylation of a biotinylated peptide. The phosphorylated peptide was detected by homogenous time resolved fluorescence (HTRF). IC50s of compounds were measured for each kinase in the 40 microL reactions that contain the enzyme, ATP and 500 nM peptide in 50 mM Tris (pH 7.8) buffer with 100 mM NaCl, 5 mM DTT, and 0.1 mg/mL (0.01%) BSA. The ATP concentration in the reactions was 90 μM for Jak1, 30 μM for Jak2 and 3 μM for Jak3 for Km conditions. For the 1 mM IC50 measurements, ATP concentration in the reactions was 1 mM. Reactions were carried out at RT for 1 h and then stopped with 20 μL 45 mM EDTA, 300 nM SA-APC, 6 nM Eu-Py20 in assay buffer (Perkin Elmer, Boston, Mass.). Binding to the Europium labeled antibody took place for 40 min and HTRF signal was measured on a Fusion plate reader (Perkin Elmer, Boston, Mass.).
(§2) Compounds herein were tested for inhibitory activity of JAK1 and JAK2 targets according to the assay of Example A (experiments run at Km or 1 mM as indicated). The symbol “+” indicates an IC50<50 nM; the symbol “++” indicates an IC50≧50 and ≦100 nM; and the symbol “+++” indicates an IC50>100 and ≦500 nM.

Jak2 (a.a. 828-1132) = biological target: T2, Jak2 (a.a. 828-1132) (Homo sapiens, UniProt O60674); test: In vitro JAK kinase assay (HTRF, phosphorylation of a biotinylated peptide), JAK2, reported as JAK2/JAK1 ratio; assay type: biochemical
T2 construct: Jak2 (a.a. 828-1132); His tag (N); made in house; host or cells: insect cells (baculovirus)
Experimental: as §1, §2

T1 sequence (P23458 849-1154): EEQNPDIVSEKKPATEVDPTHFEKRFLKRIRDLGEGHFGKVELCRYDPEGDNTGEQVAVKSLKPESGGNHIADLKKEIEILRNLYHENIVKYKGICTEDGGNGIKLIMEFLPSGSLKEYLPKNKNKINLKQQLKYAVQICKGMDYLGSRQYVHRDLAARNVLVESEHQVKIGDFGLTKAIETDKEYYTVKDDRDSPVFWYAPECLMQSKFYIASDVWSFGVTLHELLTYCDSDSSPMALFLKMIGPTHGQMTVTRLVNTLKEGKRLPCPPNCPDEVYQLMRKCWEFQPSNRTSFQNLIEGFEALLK
T2 sequence (O60674 828-1132): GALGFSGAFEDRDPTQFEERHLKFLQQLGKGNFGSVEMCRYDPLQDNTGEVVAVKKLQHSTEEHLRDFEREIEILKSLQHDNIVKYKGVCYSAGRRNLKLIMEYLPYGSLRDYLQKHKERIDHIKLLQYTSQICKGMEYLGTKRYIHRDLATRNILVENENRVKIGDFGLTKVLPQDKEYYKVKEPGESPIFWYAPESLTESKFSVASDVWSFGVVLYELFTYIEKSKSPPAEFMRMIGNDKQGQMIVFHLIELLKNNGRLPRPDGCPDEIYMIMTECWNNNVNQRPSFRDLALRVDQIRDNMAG

CS(=O)(=O)c1nc(N2CC[C@H]([C@H](CC#N)n3cc(-c4ncnc5[nH]ccc45)cn3)C2)c(F)cc1F [Example 130, (3S)-3-{(3S)-1-[3,5-difluoro-6-(methylsulfonyl)pyridin-2-yl]pyrrolidin-3-yl}-3-[4-(7H-pyrrolo[2,3-d]pyrimidin-4-yl)-1H-pyrazol-1-yl]propanenitrile trifluoroacetate]
IC50 ([1]; Assay Conditions 1 mM ATP): < 50 nM
JAK2/JAK1 IC50 ratio (Jak2 (a.a. 828-1132); Assay Conditions 1 mM ATP): 14.8

N#CC[C@@H]([C@H]1CCN(c2scc(O)c2C#N)C1)n1cc(-c2ncnc3[nH]ccc23)cn1 [Example 76, 2-((3S)-3-{(1S)-2-cyano-1-[4-(7H-pyrrolo[2,3-d]pyrimidin-4-yl)-1H-pyrazol-1-yl]ethyl}pyrrolidin-1-yl)-4-hydroxythiophene-3-carbonitrile]
IC50 ([1]; Assay Conditions 1 mM ATP): < 50 nM
JAK2/JAK1 IC50 ratio (Jak2 (a.a. 828-1132); Assay Conditions 1 mM ATP): 51.1

N#CCC(C1CCN(c2ccc3c(n2)SCC3)C1)n1cc(-c2ncnc3[nH]ccc23)cn1 (single isomer, unassigned) [Example 29, 3-[1-(2,3-dihydrothieno[2,3-b]pyridin-6-yl)pyrrolidin-3-yl]-3-[4-(7H-pyrrolo[2,3-d]pyrimidin-4-yl)-1H-pyrazol-1-yl]propanenitrile]
IC50 ([1]; Assay Conditions 1 mM ATP): < 50 nM
JAK2/JAK1 IC50 ratio (Jak2 (a.a. 828-1132); Assay Conditions 1 mM ATP): 12

N#CCC(C1CCN(c2ncc3c(c2C#N)SCC3)C1)n1cc(-c2ncnc3[nH]ccc23)cn1 (single isomer, unassigned) [Example 173, 6-(3-{2-cyano-1-[4-(7H-pyrrolo[2,3-d]pyrimidin-4-yl)-1H-pyrazol-1-yl]ethyl}pyrrolidin-1-yl)-2,3-dihydrothieno[3,2-c]pyridine-7-carbonitrile]
IC50 ([1]; Assay Conditions 1 mM ATP): < 50 nM
JAK2/JAK1 IC50 ratio (Jak2 (a.a. 828-1132); Assay Conditions 1 mM ATP): >27.3

O=S1(=O)CCc2ccc(N3CC[C@H](C(CF)n4cc(-c5ncnc6[nH]ccc56)cn4)C3)nc21 (stereo partly drawn) [Example 119, 4-(1-{1-[(3S)-1-(1,1-dioxido-2,3-dihydrothieno[2,3-b]pyridin-6-yl)pyrrolidin-3-yl]-2-fluoroethyl}-1H-pyrazol-4-yl)-7H-pyrrolo[2,3-d]pyrimidine trifluoroacetate]
IC50 ([1]; Assay Conditions 1 mM ATP): < 50 nM
JAK2/JAK1 IC50 ratio (Jak2 (a.a. 828-1132); Assay Conditions 1 mM ATP): 7.6

COc1cccc2nc(N3CCC(C(CC#N)n4cc(-c5ncnc6[nH]ccc56)cn4)C3)oc12 (single isomer, unassigned) [Example 162, 3-[1-(7-methoxy-1,3-benzoxazol-2-yl)pyrrolidin-3-yl]-3-[4-(7H-pyrrolo[2,3-d]pyrimidin-4-yl)-1H-pyrazol-1-yl]propanenitrile]
IC50 ([1]; Assay Conditions 1 mM ATP): < 50 nM
JAK2/JAK1 IC50 ratio (Jak2 (a.a. 828-1132); Assay Conditions 1 mM ATP): 7.7

CSc1ccnc(N2CC[C@H]([C@H](CC#N)n3cc(-c4ncnc5[nH]ccc45)cn3)C2)c1C#N [Example 127, 2-((3S)-3-{(1S)-2-cyano-1-[4-(7H-pyrrolo[2,3-d]pyrimidin-4-yl)-1H-pyrazol-1-yl]ethyl}pyrrolidin-1-yl)-4-(methylthio)nicotinonitrile trifluoroacetate]
IC50 ([1]; Assay Conditions 1 mM ATP): < 50 nM
JAK2/JAK1 IC50 ratio (Jak2 (a.a. 828-1132); Assay Conditions 1 mM ATP): 11.0

CN(C)S(=O)(=O)Nc1nccc(N2CCC(C(CC#N)n3cc(-c4ncnc5[nH]ccc45)cn3)C2)n1 (single isomer, unassigned) [Example 151, N-[4-(3-{2-cyano-1-[4-(7H-pyrrolo[2,3-d]pyrimidin-4-yl)-1H-pyrazol-1-yl]ethyl}pyrrolidin-1-yl)pyrimidin-2-yl]-N,N-dimethylsulfonamide]
IC50 ([1]; Assay Conditions 1 mM ATP): < 50 nM
JAK2/JAK1 IC50 ratio (Jak2 (a.a. 828-1132); Assay Conditions 1 mM ATP): 12.5

N#CC[C@@H]([C@H]1CCN(c2scc(Br)c2C#N)C1)n1cc(-c2ncnc3[nH]ccc23)cn1 [Example 77, 4-bromo-2-((3S)-3-{(1S)-2-cyano-1-[4-(7H-pyrrolo[2,3-d]pyrimidin-4-yl)-1H-pyrazol-1-yl]ethyl}pyrrolidin-1-yl)thiophene-3-carbonitrile]
IC50 ([1]; Assay Conditions 1 mM ATP): < 50 nM
JAK2/JAK1 IC50 ratio (Jak2 (a.a. 828-1132); Assay Conditions 1 mM ATP): 39.1

N#CC[C@@H]([C@H]1CCN(c2ccc(Cl)nc2Cl)C1)n1cc(-c2ncnc3[nH]ccc23)cn1 [Example 125, (3S)-3-[(3S)-1-(2,6-dichloropyridin-3-yl)pyrrolidin-3-yl]-3-[4-(7H-pyrrolo[2,3-d]pyrimidin-4-yl)-1H-pyrazol-1-yl]propanenitrile trifluoroacetate]
IC50 ([1]; Assay Conditions 1 mM ATP): < 50 nM
JAK2/JAK1 IC50 ratio (Jak2 (a.a. 828-1132); Assay Conditions 1 mM ATP): 132.5

N#CC[C@@H]([C@H]1CCN(c2ncc(F)cc2C#N)C1)n1cc(-c2ncnc3[nH]ccc23)cn1 [Example 108, 2-((S)-3-((S)-1-(4-(7H-pyrrolo[2,3-d]pyrimidin-4-yl)-1H-pyrazol-1-yl)-2-cyanoethyl)pyrrolidin-1-yl)-5-fluoronicotinonitrile trifluoroacetate salt]
IC50 ([1]; Assay Conditions 1 mM ATP): < 50 nM
JAK2/JAK1 IC50 ratio (Jak2 (a.a. 828-1132); Assay Conditions 1 mM ATP): 5.7

CN(C)C(=O)c1cc(N2CCC(C(CC#N)n3cc(-c4ncnc5[nH]ccc45)cn3)C2)ccn1 (single isomer, unassigned) [Example 153, 4-(3-{2-cyano-1-[4-(7H-pyrrolo[2,3-d]pyrimidin-4-yl)-1H-pyrazol-1-yl]ethyl}pyrrolidin-1-yl)-N,N-dimethylpyridine-2-carboxamide]
IC50 ([1]; Assay Conditions 1 mM ATP): < 50 nM
JAK2/JAK1 IC50 ratio (Jak2 (a.a. 828-1132); Assay Conditions 1 mM ATP): >11.1

N#CCC(C1CCN(c2ccc3cccc(Cl)c3n2)C1)n1cc(-c2ncnc3[nH]ccc23)cn1 (racemic) [Example 42, ±3-[1-(8-chloroquinolin-2-yl)pyrrolidin-3-yl]-3-[4-(7H-pyrrolo[2,3-d]pyrimidin-4-yl)-1H-pyrazol-1-yl]propanenitrile]
IC50 ([1]; Assay Conditions Km (ATP 90 μM for Jak1)): < 50 nM
JAK2/JAK1 IC50 ratio (Jak2 (a.a. 828-1132); Assay Conditions Km (ATP 90 μM for Jak1, 30 μM for Jak2)): 6.0

CSc1nc(N2CC[C@H]([C@H](CC#N)n3cc(-c4ncnc5[nH]ccc45)cn3)C2)c(F)cc1F [Example 129, (3S)-3-{(3S)-1-[3,5-Difluoro-6-(methylthio)pyridin-2-yl]pyrrolidin-3-yl}-3-[4-(7H-pyrrolo[2,3-d]pyrimidin-4-yl)-1H-pyrazol-1-yl]propanenitrile]
IC50 ([1]; Assay Conditions 1 mM ATP): < 50 nM
JAK2/JAK1 IC50 ratio (Jak2 (a.a. 828-1132); Assay Conditions 1 mM ATP): 5.9

N#Cc1cccnc1N1CC[C@H](C(CF)n2cc(-c3ncnc4[nH]ccc34)cn2)C1 (stereo partly drawn) [Example 118, 2-((3S)-3-{2-fluoro-1-[4-(7H-pyrrolo[2,3-d]pyrimidin-4-yl)-1H-pyrazol-1-yl]ethyl}pyrrolidin-1-yl)nicotinonitrile trifluoroacetate]
IC50 ([1]; Assay Conditions 1 mM ATP): < 50 nM
JAK2/JAK1 IC50 ratio (Jak2 (a.a. 828-1132); Assay Conditions 1 mM ATP): 2.8

N#CC[C@@H]([C@H]1CCN(c2ncc(C#N)cc2F)C1)n1cc(-c2ncnc3[nH]ccc23)cn1 [Example 107, 6-((S)-3-((S)-1-(4-(7H-pyrrolo[2,3-d]pyrimidin-4-yl)-1H-pyrazol-1-yl)-2-cyanoethyl)pyrrolidin-1-yl)-5-fluoronicotinonitrile trifluoroacetate salt]
IC50 ([1]; Assay Conditions 1 mM ATP): < 50 nM
JAK2/JAK1 IC50 ratio (Jak2 (a.a. 828-1132); Assay Conditions 1 mM ATP): 4.8

N#CCC(C1CCN(c2nc3cccc(CO)c3o2)C1)n1cc(-c2ncnc3[nH]ccc23)cn1 (single isomer, unassigned) [Example 166, 3-{1-[7-(hydroxymethyl)-1,3-benzoxazol-2-yl]pyrrolidin-3-yl}-3-[4-(7H-pyrrolo[2,3-d]pyrimidin-4-yl)-1H-pyrazol-1-yl]propanenitrile]
IC50 ([1]; Assay Conditions 1 mM ATP): < 50 nM
JAK2/JAK1 IC50 ratio (Jak2 (a.a. 828-1132); Assay Conditions 1 mM ATP): >8.7

N#CCC(C1CCN(c2ncc3cc[nH]c3c2C#N)C1)n1cc(-c2ncnc3[nH]ccc23)cn1 (single isomer, unassigned) [Example 177, 6-(3-{2-cyano-1-[4-(7H-pyrrolo[2,3-d]pyrimidin-4-yl)-1H-pyrazol-1-yl]ethyl}pyrrolidin-1-yl)-1H-pyrrolo[3,2-c]pyridine-7-carbonitrile]
IC50 ([1]; Assay Conditions 1 mM ATP): < 50 nM
JAK2/JAK1 IC50 ratio (Jak2 (a.a. 828-1132); Assay Conditions 1 mM ATP): >5.4

N#CC[C@@H]([C@H]1CCN(c2c(F)nc(F)c(F)c2C#N)C1)n1cc(-c2ncnc3[nH]ccc23)cn1 [Example 65, 3-((3S)-3-{(1S)-2-cyano-1-[4-(7H-pyrrolo[2,3-d]pyrimidin-4-yl)-1H-pyrazol-1-yl]ethyl}pyrrolidin-1-yl)-2,5,6-trifluoroisonicotinonitrile trifluoroacetate salt]
IC50 ([1]; Assay Conditions 1 mM ATP): < 50 nM
JAK2/JAK1 IC50 ratio (Jak2 (a.a. 828-1132); Assay Conditions 1 mM ATP): 9.4

FCC([C@H]1CCN(c2nc3c(cc2F)CCS3)C1)n1cc(-c2ncnc3[nH]ccc23)cn1 (stereo partly drawn) [Example 85, 4-(1-{2-fluoro-1-[(3S)-1-(5-fluoro-2,3-dihydrothieno[2,3-b]pyridin-6-yl)pyrrolidin-3-yl]ethyl}-1H-pyrazol-4-yl)-7H-pyrrolo[2,3-d]pyrimidine bis(trifluoroacetate)]
IC50 ([1]; Assay Conditions 1 mM ATP): < 50 nM
JAK2/JAK1 IC50 ratio (Jak2 (a.a. 828-1132); Assay Conditions 1 mM ATP): 5.3

N#CCC(C1CCN(c2nc3cccc(O)c3o2)C1)n1cc(-c2ncnc3[nH]ccc23)cn1 (single isomer, unassigned) [Example 161, 3-[1-(7-hydroxy-1,3-benzoxazol-2-yl)pyrrolidin-3-yl]-3-[4-(7H-pyrrolo[2,3-d]pyrimidin-4-yl)-1H-pyrazol-1-yl]propanenitrile]
IC50 ([1]; Assay Conditions 1 mM ATP): < 50 nM
JAK2/JAK1 IC50 ratio (Jak2 (a.a. 828-1132); Assay Conditions 1 mM ATP): 24.7
